Measurements from publication PMC4192545, “Suramin Inhibits Hsp104 ATPase and Disaggregase Activity” (PLoS ONE, 2014).
Counter-ions that a name gives are not always drawn. Like-named read-outs stand apart in the source and are kept apart here.

Legend:
[1] = target: T1, Hsp104 (Saccharomyces cerevisiae, UniProt P31539); assay: High-throughput Hsp104 ATPase plate assay (malachite green, 384-well); assay type: biochemical, yeast; settings: for inhibition at 10 µM: read-out: % Inhibition of Hsp104 ATP hydrolysis
T1 construct: made in house; host or cells: E. coli BL21-DE3 RIL
T1 sequence (P31539 whole entry): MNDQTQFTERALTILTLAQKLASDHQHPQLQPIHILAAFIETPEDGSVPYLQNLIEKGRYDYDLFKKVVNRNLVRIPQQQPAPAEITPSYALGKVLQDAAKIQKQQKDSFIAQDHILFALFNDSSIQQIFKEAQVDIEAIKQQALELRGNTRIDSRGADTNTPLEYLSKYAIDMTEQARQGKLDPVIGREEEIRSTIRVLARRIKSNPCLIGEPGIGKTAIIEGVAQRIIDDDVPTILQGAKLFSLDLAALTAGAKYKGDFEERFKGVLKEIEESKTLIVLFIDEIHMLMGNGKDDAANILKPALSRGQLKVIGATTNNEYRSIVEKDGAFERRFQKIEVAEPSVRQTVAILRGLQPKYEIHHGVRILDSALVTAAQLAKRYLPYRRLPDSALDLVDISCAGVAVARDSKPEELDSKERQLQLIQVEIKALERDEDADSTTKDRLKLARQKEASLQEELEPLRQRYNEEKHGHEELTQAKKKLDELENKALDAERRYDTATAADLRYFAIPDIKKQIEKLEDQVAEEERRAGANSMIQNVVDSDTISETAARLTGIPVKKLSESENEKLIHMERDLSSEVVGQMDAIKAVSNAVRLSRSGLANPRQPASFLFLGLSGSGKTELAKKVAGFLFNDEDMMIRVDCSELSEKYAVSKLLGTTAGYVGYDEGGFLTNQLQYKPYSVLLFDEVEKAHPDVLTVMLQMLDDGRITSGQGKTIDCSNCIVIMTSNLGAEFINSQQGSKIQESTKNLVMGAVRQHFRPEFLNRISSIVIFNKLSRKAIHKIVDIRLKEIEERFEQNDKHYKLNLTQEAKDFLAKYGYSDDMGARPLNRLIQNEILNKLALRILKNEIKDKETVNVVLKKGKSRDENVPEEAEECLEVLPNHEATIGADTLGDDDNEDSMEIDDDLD
Description: ATPase activity was assessed by the release of inorganic phosphate determined using a malachite green phosphate detection kit (Innova Biosciences, Cambridge, United Kingdom). Microtiter plates (384-well) were purchased from PerkinElmer (Waltham, MA). Three libraries were screened: The NIH Clinical Collection (450 small molecules), the Spectrum Collection (2,000 compounds, MicroSource, Gaylordsville, CT) and the HitFinder Collection (14,400 compounds, Maybridge).
We adapted the inorganic phosphate colorimetric assay to fit a 384-well plate format. A Ź-factor between 0.8 and 1 was calculated for the assay. A 2X Hsp104 stock solution was dispensed into each well using a Biotek microflo (Biotek Instruments, Winooski, VT). Compounds were then transferred using a Janus 96/384 Modular Dispensing Tool (PerkinElmer). Finally, a 2X ATP solution was dispensed using the Biotek microflo. Final concentrations of Hsp104 (monomer) and ATP were 0.25 µM and 1 mM respectively. Seeking to avoid the discovery of competitive inhibitors, we designed our high-throughput screen to use a 100-fold excess of ATP with respect to the test compounds (10 µM each). Final buffer conditions were 20 mM HEPES-KOH pH 7.4, 20 mM NaCl and 10 mM MgCl2. The ATPase reaction was allowed to continue for 60 min, at which time the reaction was terminated by addition of the colorimetric reagent. Absorbance was measured at 635 nm on an EnVision Xcite Multilabel plate reader (PerkinElmer). Hits were tested in duplicate. […] Ten of these were subjected to a 6-point titration (40, 13.3, 4.44, 1.45, 0.49 and 0 µM) in the absence or presence of Triton X-100, BSA, or both Triton X-100 and BSA at the specified concentrations. Heat maps were created in Excel for Mac 2011 (Microsoft Corporation) using the Conditional Formatting feature (Color Scales).
We aimed to identify small molecules capable of inhibiting Hsp104. To do so, we employed high-throughput screening using Hsp104 ATPase activity as a proxy for function. To detect changes in Hsp104 ATPase activity, we used a colorimetric assay detecting free inorganic phosphate (Pi) based on the formation of a colored complex between Pi and a dye molecule under acidic conditions, [44]. Pi is produced from the Hsp104-driven hydrolysis of ATP. The colored complex concentration, a surrogate for Pi concentration and ATPase rate, is determined by measuring the absorbance of a sample at 635 nm. We used recombinant Hsp104 purified from E. coli. An Hsp104 mutant with mutations in both NBD1 and NBD2 Walker B sequence motifs (Hsp104^DWB, carrying ATPase ablating mutations E285Q: E687Q) was used as a negative control for ATPase activity. Hsp104^WT activity results in a high A635 (high ATPase), while Hsp104^DWB activity results in a low A635 (low ATPase). We optimized the Pi colorimetric assay to fit a 384-well plate format. We selected the Hsp104 concentration (0.25 µM) on the basis of previous experience in our laboratory. The ATP concentration was selected to be in a 100-fold excess of ATP with respect to the test compounds. […] We screened 16,850 compounds from the NIH Clinical Collection as well as the Spectrum and Maybridge compound libraries. […] For instance, hexachlorophene and tannic acid inhibit Hsp104 ATPase activity by ∼80%, while Merbromin and Sennoside a inhibit by ∼20% ( Table 1 ).

[2] = target: T2, Hsp104^WT (Saccharomyces cerevisiae, UniProt P31539); assay: Manual ATPase assay, Hsp104^WT; assay type: biochemical, yeast; settings: 60 min, ATP 1 mM
T2 construct: made in house; host or cells: E. coli BL21-DE3 RIL
T2 sequence (P31539 whole entry): as above
Description: Wild-type or mutant Hsp104 (0.25 µM monomer) in ATPase buffer (20 mM HEPES-KOH pH 7.4, 20 mM NaCl and 10 mM MgCl2) was incubated for 60 or 10 min at 25°C in the presence of ATP (1 mM) as noted. ATPase activity was assessed by the release of inorganic phosphate determined by using a malachite green phosphate detection kit (Innova).

[3] = target: T1, Hsp104; assay: Luciferase disaggregation/reactivation assay, Hsp104 with ATP:ATPγS; assay type: biochemical, yeast; settings: for Normalized Luciferase Refolding Activity: 90 min 25°C, ATP:ATPγS 1:1, Figure 3A
Description: Luciferase reactivation was performed as described, [37]. To assemble aggregates, firefly luciferase (50 µM) in luciferase refolding buffer (LRB, 25 mM HEPES-KOH, 7.4, 150 mM KAOc, 10 mM MgAOc, 10 mM DTT) with 6 M urea was incubated at 30°C for 20 min. Luciferase was then rapidly diluted 100-fold into LRB, divided into 100 µL aliquots, snap frozen in liquid N2, and stored at −80°C. For reactivation assays, aggregated luciferase (50 nM) was incubated with Hsp104 (1 µM hexamer), plus 2.6 mM ATPγS, 2.6 mM ATP and an ATP regeneration system (1 mM creatine phosphate, 0.25 µM creatine kinase (Roche Applied Science)) for 90 minutes at 25°C. Luciferase assay system was purchased from Promega. Luciferase activity was assessed by luminescence measured on a Safire^2 microplate reader (Tecan, Männedorf, Switzerland). The half maximal inhibitory concentration (IC50) was calculating by fitting luciferase-refolding data at different Suramin concentrations with Prism (GraphPad Software, Inc., La Jolla, CA).

[4] = system: Hsp104; settings: cited from earlier work
[5] = 10 µM compound, Hsp104 0.25 µM monomer, ATP 1 mM, 60 min, mean ±S.D. (n = 2)

Compound | inhibition at 10 µM [1, 5] [%] | % Inhibition of Hsp104 ATP hydrolysis [1, 5] [%] | also measured
Cl.N=C(N)N [GdmCl, guanidinium hydrochloride] |  |  | Effect on Hsp104 ATPase activity, manual assay ([2]; 30 mM (highest concentration tested)): only very mildly inhibited Hsp104 ATPase activity; Concentration needed to elicit the same level of inhibition as 100 µM Suramin (complete ablation of luciferase refolding) ([3]; ATP:ATPγS 1:1): 5 mM; Normalized Luciferase Refolding Activity ([3]; GdmCl 1 mM): 0.07; Normalized Luciferase Refolding Activity ([3]; GdmCl 5 mM): 0.01; Normalized Luciferase Refolding Activity ([3]; GdmCl 10 mM): 0.01; Normalized Luciferase Refolding Activity ([3]; GdmCl 20 mM): 0.01; Effect on luciferase reactivation activity of Hsp104 ([3]; all concentrations of GdmCl tested (1-20 mM)): very strongly inhibited the luciferase reactivation activity of Hsp104; Hsp104 ATPase activity remaining ([4]; GdmCl 100 mM): large fraction of Hsp104 ATPase activity remained; Effective concentration for inhibition of Hsp104 activity [4]: effective at millimolar concentrations
Sucralfate Sodium |  | 25.67±2.59 | 
N.N.O=C([O-])C1(C(=O)[O-])CCC1.[Pt+2] [Carboplatin] |  | 73.75±1.41 | 
O=C(O)C1=CC(=C(c2ccc(O)c(C(=O)O)c2)c2ccc(O)c(C(=O)O)c2)C=CC1=O [Aurin tricarboxylic acid] | 24.2 ± 1.41 |  | 
Tannic acid |  | 79.79±0.29 | % Inhibition of Hsp104 ATP hydrolysis ([1]; 10 µM compound, Hsp104 0.25 µM monomer, ATP 1 mM, 60 min, mean ±S.D. (n = 2), listed as tannic acid): ~80%
Oc1c(Cl)cc(Cl)c(Cl)c1Cc1c(O)c(Cl)cc(Cl)c1Cl [Hexachlorophene] | ~80 | 80.21±1.00 | 
Chlorophyllide Cu Complex Na Salt |  | 33.79±2.18 | 
Cc1cc2c(C(C)C)c(O)c(O)c(C=O)c2c(O)c1-c1c(C)cc2c(C(C)C)c(O)c(O)c(C=O)c2c1O [Gossypol] |  |  | inhibition at 10 µM [1]: 42.3 ± 4.83%
CC(=O)O.Cc1cc2c(C(C)C)c(O)c(O)c(C=O)c2c(O)c1-c1c(C)cc2c(C(C)C)c(O)c(O)c(C=O)c2c1O [Gossypol-acetic acid complex] |  | 47.92±1.30 | 
O=C1C=C2CC3(O)COc4c(ccc(O)c4O)C3=C2C=C1O (centres unmarked) [Hematein] |  |  | inhibition at 10 µM [1]: 45.7 ± 5.95%
N.N.[Cl][Pt][Cl] [Cisplatin, cis-diamminedichloroplatinum (II)] |  | 76.58±1.06 | Inhibition of Hsp104 ATPase activity in the presence of both Triton X-100 and BSA ([1]; titration 40-0.49 µM, 60 min, Triton X-100 and BSA, heat map Figure 1A): most significantly inhibit Hsp104 ATPase activity; Effect on Hsp104 ATPase activity (Pi produced), manual assay ([2]; varying concentrations, Figure 2A): unable to replicate the inhibitory effect of Cisplatin outside of the 384-well format
O=C([O-])c1ccccc1-c1c2cc(Br)c(=O)cc-2oc2[c]([Hg+])c([O-])c(Br)cc12.[Na+].[Na+].[OH-] [Merbromin] |  | 21.17±3.54 | 

The next lines start with results.

inhibition at 10 µM [1, 5] [%] | Compound | % Inhibition of Hsp104 ATP hydrolysis [1, 5] [%] | also measured
~20 | O=C(O)c1cc(O)c2c(c1)[C@H]([C@H]1c3cc(C(=O)O)cc(O)c3C(=O)c3c(O[C@@H]4O[C@H](CO)[C@@H](O)[C@H](O)[C@H]4O)cccc31)c1cccc(O[C@@H]3O[C@H](CO)[C@@H](O)[C@H](O)[C@H]3O)c1C2=O [Sennoside a] | 19.92±7.07 | 
21.9 ± 2.53 | O=C(Oc1cc(O)cc2c1C[C@@H](OC(=O)c1cc(O)c(O)c(O)c1)[C@@H](c1cc(O)c(O)c(O)c1)O2)c1cc(O)c(O)c(O)c1 [Epigallocatechin 3,5-digallate] |  | 
33.3 ± 2.12 | C=C1c2cccc(O)c2C(=O)C2=C(O)[C@]3(O)C(=O)C(C(N)=O)=C(O)[C@@H](N(C)C)[C@@H]3[C@@H](O)[C@H]12 [Methacycline hydrochloride] |  | 
57.2 ± 7.19 | O=C(O[C@@H]1Cc2c(O)cc(O)cc2O[C@@H]1c1cc(O)c(=O)c2c(O)c(O)cc([C@H]3Oc4cc(O)cc(O)c4C[C@H]3O)c2c1)c1cc(O)c(O)c(O)c1 [Theaflavin monogallates] |  | 
